Source: patent publication US20070078262A1, “Thiomorpholino steroid compounds, the use thereof for the preparation of meiosis-regulating medicaments and method for the preparation thereof” (SCHERING AKTIENGESELLSCHAFT, priority 2003, published 2007)
Several values for one entry are separate records, joined by “and”; a condition that tells them apart may be missing. Equal entries are not always repeated.

Key:
[1] = tested on: Cumulus Enclosed Oocytes (CEOs); assay: Cumulus enclosed oocyte assay (meiosis activation in Hx-medium); type: cell-based, mice (C57BL/6J×DBA/2J F1); conditions: for Meiosis Activation [%]: in the presence of Hx in CEOs
Source text: Activation of MI arrested oocytes can be assessed by the disappearance of the germinal vesicle (GV). The disappearance of the GV, called germinal vesicle breakdown (GVB) is followed by the extrusion of the first polar body (PB) (C. Grøndahl, J. L. Ottesen, M. Lessi, P. Faarup, A. Murray, F C Grønvald, C. Hegele-Hartung, I. Ahnfelt-Rønne, “Meiosis-activating sterol promotes resumption of meiosis in mouse oocytes cultured in vitro in contrast to related oxysterols”, Biol. Reprod., 58, 1297-1302 (1998); C. Hegele-Hartung, J. Kuhnke, M. Lessi, C. Grøndahl, J. Ottesen, H. M. Beier, S. Eisner, U. Eichenlaub-Ritter, “Nuclear and cytoplasmic maturation of mouse oocytes after treatment with synthetic meiosis-activating sterol in vitro”, Biol. Reprod., 61, 1362-1372 (1999)).
Cumulus Enclosed Oocytes (CEOs) were obtained from immature female mice (C57BL/6J×DBA/2J F1) weighing 13-16 grams, that were kept under controlled temperature (20-22° C.), light (lights on 06:00-18:00) and relative humidity (50-70%). The mice received an intra-peritoneal injection of 0.2 ml gonadotropins containing 20 IU FSH. 48 hours later the animals were killed by cervical dislocation. The ovaries were dissected out and the oocytes were isolated in Hx-medium (see below) under a stereomicroscope by manual rupture of the follicles using a pair of 27-gauge needles. Cumulus enclosed oocytes displaying an intact germinal vesicle were placed in α-minimum essential medium (α-MEM without ribonucleosides supplemented with 8 mg/ml Human Serum Albumin (HSA), 0.23 mM pyruvate, 2 mM glutamine, 100 IU/ml penicillin and 100 μg/ml streptomycin). To maintain the oocytes in the germinal vesicle stage this medium was supplemented with 3 mM hypoxanthine, designated as Hx-medium.
The CEOs (35-45 CEOs in 0.4 ml Hx-medium) were cultured in a humidified atmosphere of 5% CO2 in air for 24 hours at 37° C. One control well (identical medium with no addition of test compound) was always cultured simultaneously with test wells.
By the end of the culture period the number of CEOs with germical vesicle (GV), germinal vesicle breakdown (GVB) and polar bodies (PB), respectively, were counted. The % GVB, defined as the percentage of CEOs undergoing GVB per total number of CEOs in that well, was calculated as: % GVB=(number of GVB+number of PB/total number of CEOs)×100
The % PB was defined as the percentage of CEOs displaying one extruded polar body per total number of CEOs in that well.
For each compound two experiments were performed and the results compared to Hx-medium as a control and FF-MAS at a concentration of 10 μM.

[2] = tested on: mouse oocytes; assay: In vitro fertilization (IVF) after in vitro maturation of oocytes; type: cell-based, mice (C57BL/6J×DBA/2J F1); conditions: in vitro maturation without hypoxanthine, then IVF; n=18
Description: Changes in the subsequent IVF are therefore probably due to effects of the test compounds on cytoplasmic maturation.
Immature female mice (C57BL/6J×DBA/2J F1) in the age of 21-24 days were used as oocyte donors. Animals were given an i.p. injection of 10 IU pregnant mare serum gonadotropin (PMSG) to induce follicular growth. Animals were killed by cervical dislocation 48 hours later and the ovaries were dissected out. As sperm donors eight week old male mice (C57BL/6J×DBA/2J F1) were used.
Oocytes were isolated from the ovaries by manual rupture of the follicles using a pair of 27-gauge needles. Spherical naked oocytes (NkO) and CEOs displaying an intact GV were selected and placed in α-minimum essential medium (α-MEM without ribonucleosides, Gibco BRL, Gaithersburg; Cat. No. 22561) supplemented with 8 mg/ml human serum albumin (HSA), 0.23 mM pyruvate, 2 mM glutamine, 100 IU/ml penicillin and 100 μg/ml streptomycin.
The oocytes were rinsed three times in culture medium without oil overlay in 4-well multidishes containing 0.4 ml of the respective oocyte culture medium.
The oocyte culture medium was supplemented with 6.4% Fetal Bovine Serum (FBS). Solutions of novel compound IA and of the two compounds in comparison as mentioned were prepared from a stock solution containing 1 mg/ml of compound dissolved in absolute ethanol. The control group was cultured with a corresponding amount of ethanol.
After a culture time of 18-19 hours oocytes were further processed for in vitro fertilization. […] Oocytes were briefly washed without any test compound and subsequently transferred to the insemination dishes prepared in advance, which contained approximately 600.000 capacitated sperm cells per 500 μl IVF medium (obtained from the epididymides of male mice). The dishes were then incubated under defined gas conditions (5% CO2 in air) at 37° C. in a modified α-MEM IVF medium supplemented with 8 mg/ml HSA, 0.23 mM pyruvate, 100 IU penicillin/ml and 100 μg streptomycin/ml as described above for oocyte maturation.
Examination of the oocytes was carried out 22-24 hours after insemination in order to check fertilization and to record the number of pronucleus (PN) and 2-cell stage embryos. The fertilization rate was determined as the number of oocytes that had reached the PN or 2-cell embryo stage, relative to the total number inseminated.

[3] = tested on: in vitro fertilized ova (2-cell embryos); assay: Retransfer study / fertility trial (in vitro fertilized 2-cell embryos transferred into foster mothers); type: in vivo, mice; conditions: for No. of Implantation Spots: Odds / No. of Viable Fetuses: Odds: successes divided by failures; for No. of Implantation Spots: Failures: transferred ova minus implantation spots; for No. of Viable Fetuses: Failures: transferred ova minus viable fetuses; for shows significant improvement of odds versus vehicle control, number of implantation spots: 95% confidence interval of odds ratio, all doses tested; for Odds Ratio for comparison to FF-MAS, No. of Implantation Spots / Odds Ratio for comparison to FF-MAS, No. of Viable Fetuses: versus FF-MAS 10 μM
Description: In vitro fertilization was performed as described above for the IVF experiment.
One day before the retransfer female recipient mice (foster mothers) in pro-estrus cycle state were mated with vasectomized males in order to trigger pseudogestation. One day later a vaginal check was performed. Animals with a positive, sperm-free vaginal plug (successful mating) entered the study. This day was designated day 0 of gestation (=day 0 after the sterile copulation, day 0 p.c.). […] 2-cell embryos were transferred into the right tube of the foster mothers on day 0 after the sterile copulation under anesthesia. The contra-lateral tube remained unused (check for pseudogestation). The foster mothers were sacrified on day 19 of gestation. The fetuses were removed and examined. The ovaries and uteri were removed immediately to record the number of implantation sites, viable and dead fetuses and resorptions. Apparently non-pregnant uteri were placed in a 10% aqueous solution of ammonium sulfide for about 10 min to stain possible implantation sites in the endometrium. The viable fetuses were individually weighed and their sex determined by inspection of their gonads.
In a fertility trial 269 mice were randomized into 6 groups and implanted with 7-10 in vitro fertilized ova. The in vitro fertilization took place in the presence of vehicle (group 1) or of a substance (groups 2 to 6).
The fertility raising effect of the substances in comparison to the vehicle control was of main interest. Moreover, an improvement compared to the substance FF-MAS was also investigated.
Variables of primary interest are the number of implantation spots and the number of viable fetuses.
The data for implantation spots as well as for viable fetuses have to be considered to have binary character, i.e. it can be expressed in rates or in a number of successes and failures with respect to the number of transferred ova. Therefore, methods as outlined by D. Collett: “Modelling Binary Data”, 2nd edition, Chapman & Hall/CRC, Boca Raton, constitute appropriate approaches to the data analysis.
The odds ratio of one group as compared to the other is defined as: odds ratio (group 1, group 2)=or1,2=odds (group 1)/odds (group 2)
where the odds of a group can be estimated by the number of successes divided by the number of failures in that group.
To reach statements about the significance of any findings, 95% confidence-intervals for the odds ratios are computed as: [ exp(log(or1,2)[…]1.96·se(log(or1,2))); exp(log(or1,2)+1.96·se(log(or1,2)))]
wherein se(log(or1,2)) is the standard error of the log odds ratio (see D. Collett (2003) for the corresponding formula).
As a basis for the computation of odds ratios, the number of successes (i.e., the number of implantation spots of number of viable fetuses) and failures (i.e., the number of transferred ova minus the number of implantation spots or number of viable fetuses) are computed for all groups.

[4] = tested on: follicle culture system; assay: Follicle culture system (induction of maturation); type: cell-based
[5] = tested on: rat oocytes (CEO and DO); conditions: micromolar concentrations; CEO and DO cultured in vitro; cited from earlier work
[6] = Solubility in water (measured by turbimetry)
[7] = 10 μM, Table 1, two experiments per compound, FF-MAS run in parallel

SMILES	Meiosis Activation [%] ([1]; 10 μM, Table 2)	fertilization rates of mouse oocytes compared to vehicle control (FIG. 3) [2]	No. of Implantation Spots: Success ([3]; 10 μM)	No. of Viable Fetuses: Success ([3]; 10 μM)	Odds Ratio for comparison to vehicle control, No. of Implantation Spots ([3]; 10 μM)	Odds Ratio for comparison to vehicle control, No. of Viable Fetuses ([3]; 10 μM)	No. of Implantation Spots: Odds ([3]; 10 μM)	No. of Viable Fetuses: Odds ([3]; 10 μM)	No. of Implantation Spots: Failures ([3]; 10 μM)	No. of Viable Fetuses: Failures ([3]; 10 μM)	shows significant improvement of odds versus vehicle control, number of implantation spots [3]	Meiosis Activation [%] [1, 7]	other results
CC(C)=CCC[C@@H](C)[C@H]1CC=C2C3=C(CC[C@@]21C)[C@@]1(C)CC[C@H](O)C(C)(C)[C@@H]1CC3 [FF-MAS, 4,4-dimethyl-5α-cholesta-8,14,24-trien-3β-ol]	24	higher fertilization rates	100	45	1.19	1.49	0.30	0.12	335	390	Neither		implantation rate per transferred 2-cell embryos (FIG. 4) ([3]; FF-MAS 10 μM, compound IA 1 μM and 10 μM): higher numbers; induction of maturation / activation of meiosis in a follicle culture system [4]: not able to induce maturation; resumption of meiosis in rat oocytes arrested by IBMX [5]: able to induce resumption of meiosis in a dose-dependent manner; solubility [6]: < 0.1 µg/mL
C[C@H](CN1CCSCC1)[C@H]1CC=C2C3=C(CC[C@@]21C)[C@@]1(C)CC[C@H](O)C[C@@H]1CC3 [Compound IC, (20S)-20-[(thiomorpholin-4-yl)methyl]-5α-pregna-8,14-dien-3β-ol]												64% and 69%	
C[C@H](CN1CCSCC1)[C@H]1CCC2=C3CC[C@H]4C[C@@H](O)CC[C@]4(C)[C@H]3CC[C@@]21C [Compound IE, (20S)20-[(thiomorpholin-4-yl)methyl]-5α-pregna-8(14)-en-3β-ol]	60											96% and 80%	Meiosis Activation [%] ([1]; 1 μM, Table 2): 44%; Meiosis Activation [%] ([1]; 3 μM, Table 2): 24%; efficiency of meiosis activation among the compounds tested ([1]; CEOs in the presence of Hx): the most efficient compound tested
C[C@H](CN1CCSCC1)[C@H]1CC[C@H]2C3=CC=C4C(C)(C)[C@@H](O)CC[C@]4(C)[C@H]3CC[C@]12C [Compound ID, (20S)-20-[(thiomorpholin-4-yl)methyl]-4,4-dimethyl-pregna-5,7-dien-3β-ol]												89% and 58%	
C[C@H](CN1CCSCC1)[C@H]1CCC2=C3CC[C@H]4C(C)(C)[C@@H](O)CC[C@]4(C)[C@H]3CC[C@@]21C [Compound IB, (20S)-20-[(thiomorpholin-4-yl)methyl]-4,4-dimethyl-5α-pregna-8(14)-en-3β-ol]												15%	
C[C@H](CN1CCCCC1)[C@H]1CC=C2C3=C(CC[C@@]21C)[C@@]1(C)CC[C@H](O)C(C)(C)[C@@H]1CC3 [Compound No. 2, (20S)-20-[(piperidin-1-yl)methyl]-4,4-dimethyl-5α-pregna-8,14-dien-3β-ol]	48	higher fertilization rates	90	37	1.08	1.24	0.27	0.10	332	385	Neither		No. of Implantation Spots: Success ([3]; 1 μM): 97; No. of Viable Fetuses: Success ([3]; 1 μM): 32; Odds Ratio for comparison to vehicle control, No. of Implantation Spots ([3]; 1 μM): 1.09; Odds Ratio for comparison to vehicle control, No. of Viable Fetuses ([3]; 1 μM): 0.98; No. of Implantation Spots: Odds ([3]; 1 μM): 0.27; No. of Viable Fetuses: Odds ([3]; 1 μM): 0.08; No. of Implantation Spots: Failures ([3]; 1 μM): 357; No. of Viable Fetuses: Failures ([3]; 1 μM): 422; Odds Ratio for comparison to FF-MAS, No. of Implantation Spots ([3]; 1 μM): 0.91; Odds Ratio for comparison to FF-MAS, No. of Viable Fetuses ([3]; 1 μM): 0.66; Odds Ratio for comparison to FF-MAS, No. of Implantation Spots ([3]; 10 μM): 0.91; Odds Ratio for comparison to FF-MAS, No. of Viable Fetuses ([3]; 10 μM): 0.83
